We go through 25 substances from the OligoGym collection.

This series deals with PRNP. Kind of series: mouse, dose not given. The conditions noted are these: ASO.

HELM strings list units from the 5' end as sugar, base in round brackets, then linkage (d deoxyribose, r ribose, m 2'-O-methyl, p phosphodiester). Strings are as the collection lists them; they lack the last nucleoside at the 3' end of the tested compound. [moe] = 2'-O-(2-methoxyethyl) (MOE); [sp] = phosphorothioate linkage; [m5C] = 5-methylcytosine

As for “RNA1{[moe](A)[sp].[moe](A)p.[moe](A)p.[moe]([m5C])p.[moe](G)[sp].d(T)[sp].d([m5C])[sp].d([m5C])[sp].d(A)[sp].d(T)[sp].d(T)[sp].d(T)[sp].d(T)[sp].d([m5C])[sp].d(T)[sp].[moe](G)p.[moe](T)p.[moe](G)[sp].[moe]([m5C])}$$$$ (last 3' nucleoside missing)”, the 3 h FOB score stood at 0 score 0-7.
With “RNA1{[moe](A)[sp].[moe](A)p.[moe](G)p.[moe](G)p.[moe](T)[sp].d(T)[sp].d([m5C])[sp].d(G)[sp].d([m5C])[sp].d([m5C])[sp].d(A)[sp].d(T)[sp].d(A)[sp].d(A)[sp].d(T)[sp].[moe](G)p.[moe](A)p.[moe]([m5C])[sp].[moe](T)}$$$$ (last 3' nucleoside missing)”, the 3 h FOB score was 5.25 score 0-7.
In turn, “RNA1{[moe](A)[sp].[moe](A)p.[moe](G)p.[moe]([m5C])p.[moe]([m5C])[sp].d(T)[sp].d(T)[sp].d(T)[sp].d([m5C])[sp].d(A)[sp].d(T)[sp].d(A)[sp].d(T)[sp].d(A)[sp].d(T)[sp].[moe](G)p.[moe](T)p.[moe](T)[sp].[moe](A)}$$$$ (last 3' nucleoside missing)” displayed a 3 h FOB score of 0 score 0-7.
“RNA1{[moe](A)[sp].[moe](A)p.[moe](T)p.[moe](G)p.[moe](A)[sp].d([m5C])[sp].d(T)[sp].d([m5C])[sp].d(A)[sp].d(T)[sp].d([m5C])[sp].d(A)[sp].d(T)[sp].d(T)[sp].d(T)[sp].[moe](T)p.[moe](G)p.[moe]([m5C])[sp].[moe]([m5C])}$$$$ (last 3' nucleoside missing)” returned a 3 h FOB score of 0 score 0-7.
With “RNA1{[moe](A)[sp].[moe](A)p.[moe](T)p.[moe](T)p.[moe](T)[sp].d([m5C])[sp].d(T)[sp].d(T)[sp].d(T)[sp].d(T)[sp].d(T)[sp].d([m5C])[sp].d([m5C])[sp].d(A)[sp].d([m5C])[sp].[moe](T)p.[moe](T)p.[moe]([m5C])[sp].[moe](A)}$$$$ (last 3' nucleoside missing)” the figure was 0 score 0-7; with “RNA1{[moe](A)[sp].[moe](A)p.[moe](T)p.[moe]([m5C])p.[moe](A)[sp].d(T)[sp].d(A)[sp].d(T)[sp].d(T)[sp].d(T)[sp].d([m5C])[sp].d(T)[sp].d(G)[sp].d(T)[sp].d([m5C])[sp].[moe](A)p.[moe](T)p.[moe]([m5C])[sp].[moe](T)}$$$$ (last 3' nucleoside missing)”, 5 score 0-7.
The figure for “RNA1{[moe](A)[sp].[moe](A)p.[moe](T)p.[moe]([m5C])p.[moe](A)[sp].d(T)[sp].d(T)[sp].d([m5C])[sp].d(T)[sp].d(G)[sp].d(G)[sp].d(T)[sp].d(T)[sp].d(T)[sp].d([m5C])[sp].[moe]([m5C])p.[moe](A)p.[moe](G)[sp].[moe](G)}$$$$ (last 3' nucleoside missing)” is 0.5 score 0-7; for “RNA1{[moe](A)[sp].[moe](A)p.[moe]([m5C])p.[moe](A)p.[moe](T)[sp].d(T)[sp].d(T)[sp].d(G)[sp].d(A)[sp].d(T)[sp].d(T)[sp].d(T)[sp].d([m5C])[sp].d(A)[sp].d(A)[sp].[moe](G)p.[moe](T)p.[moe]([m5C])[sp].[moe]([m5C])}$$$$ (last 3' nucleoside missing)” it is 2.5 score 0-7.
With “RNA1{[moe](A)[sp].[moe](A)p.[moe]([m5C])p.[moe](G)p.[moe](T)[sp].d([m5C])[sp].d([m5C])[sp].d(A)[sp].d(T)[sp].d(T)[sp].d(T)[sp].d(T)[sp].d([m5C])[sp].d(T)[sp].d(G)[sp].[moe](T)p.[moe](G)p.[moe]([m5C])[sp].[moe](T)}$$$$ (last 3' nucleoside missing)” the figure was 0 score 0-7; with “RNA1{[moe](A)[sp].[moe](G)p.[moe](A)p.[moe](G)p.[moe]([m5C])[sp].d(A)[sp].d(A)[sp].d(T)[sp].d(A)[sp].d(T)[sp].d(A)[sp].d(T)[sp].d(T)[sp].d([m5C])[sp].d(A)[sp].[moe]([m5C])p.[moe]([m5C])p.[moe](A)[sp].[moe](A)}$$$$ (last 3' nucleoside missing)”, 0 score 0-7.
The substance “RNA1{[moe](A)[sp].[moe](G)p.[moe](G)p.[moe](G)p.[moe]([m5C])[sp].d(A)[sp].d(T)[sp].d(T)[sp].d(A)[sp].d(G)[sp].d(T)[sp].d(A)[sp].d(T)[sp].d(A)[sp].d([m5C])[sp].[moe](T)p.[moe](G)p.[moe](A)[sp].[moe](G)}$$$$ (last 3' nucleoside missing)” displayed a 3 h FOB score of 2.75 score 0-7.
The figure for “RNA1{[moe](A)[sp].[moe](G)p.[moe](T)p.[moe](A)p.[moe](T)[sp].d([m5C])[sp].d(A)[sp].d(T)[sp].d(G)[sp].d(T)[sp].d(G)[sp].d(G)[sp].d([m5C])[sp].d([m5C])[sp].d(T)[sp].[moe]([m5C])p.[moe]([m5C])p.[moe](T)[sp].[moe](A)}$$$$ (last 3' nucleoside missing)” is 5.75 score 0-7.
With “RNA1{[moe](A)[sp].[moe](G)p.[moe](T)p.[moe](T)p.[moe]([m5C])[sp].d(T)[sp].d(T)[sp].d(T)[sp].d(T)[sp].d([m5C])[sp].d(T)[sp].d(T)[sp].d(T)[sp].d(G)[sp].d([m5C])[sp].[moe](A)p.[moe]([m5C])p.[moe](A)[sp].[moe]([m5C])}$$$$ (last 3' nucleoside missing)” the figure was 5.25 score 0-7; with “RNA1{[moe](A)[sp].[moe](G)p.[moe]([m5C])p.[moe](A)p.[moe]([m5C])[sp].d(A)[sp].d(G)[sp].d(G)[sp].d([m5C])[sp].d(T)[sp].d(A)[sp].d(T)[sp].d([m5C])[sp].d(T)[sp].d(T)[sp].[moe](T)p.[moe]([m5C])p.[moe](T)[sp].[moe](A)}$$$$ (last 3' nucleoside missing)”, 5 score 0-7; with “RNA1{[moe](A)[sp].[moe](G)p.[moe]([m5C])p.[moe](T)p.[moe]([m5C])[sp].d(T)[sp].d(A)[sp].d(T)[sp].d(T)[sp].d(A)[sp].d(A)[sp].d(T)[sp].d(A)[sp].d(G)[sp].d(G)[sp].[moe](T)p.[moe](T)p.[moe](A)[sp].[moe](G)}$$$$ (last 3' nucleoside missing)”, 5.5 score 0-7.
The figure for “RNA1{[moe](A)[sp].[moe](G)p.[moe]([m5C])p.[moe](T)p.[moe]([m5C])[sp].d(T)[sp].d([m5C])[sp].d([m5C])[sp].d(T)[sp].d(G)[sp].d(T)[sp].d(A)[sp].d(T)[sp].d(G)[sp].d(T)[sp].[moe]([m5C])p.[moe](A)p.[moe](A)[sp].[moe](A)}$$$$ (last 3' nucleoside missing)” is 4.75 score 0-7; for “RNA1{[moe](A)[sp].[moe](T)p.[moe](G)p.[moe](G)p.[moe](T)[sp].d(G)[sp].d([m5C])[sp].d(T)[sp].d(T)[sp].d(T)[sp].d([m5C])[sp].d(A)[sp].d([m5C])[sp].d(A)[sp].d(A)[sp].[moe]([m5C])p.[moe](T)p.[moe](G)[sp].[moe]([m5C])}$$$$ (last 3' nucleoside missing)” it is 1 score 0-7; for “RNA1{[moe](A)[sp].[moe](T)p.[moe](G)p.[moe](G)p.[moe]([m5C])[sp].d(A)[sp].d([m5C])[sp].d(T)[sp].d(T)[sp].d(T)[sp].d([m5C])[sp].d(T)[sp].d(T)[sp].d(T)[sp].d(T)[sp].[moe](T)p.[moe](A)p.[moe](T)[sp].[moe](T)}$$$$ (last 3' nucleoside missing)” it is 1 score 0-7.
“RNA1{[moe](A)[sp].[moe](T)p.[moe](G)p.[moe](T)p.[moe](T)[sp].d(A)[sp].d([m5C])[sp].d(A)[sp].d(G)[sp].d(T)[sp].d(T)[sp].d(A)[sp].d(T)[sp].d(G)[sp].d(T)[sp].[moe](T)p.[moe]([m5C])p.[moe](A)[sp].[moe]([m5C])}$$$$ (last 3' nucleoside missing)” showed a 3 h FOB score of 2.5 score 0-7.
The figure for “RNA1{[moe](A)[sp].[moe](T)p.[moe](G)p.[moe](T)p.[moe](T)[sp].d(T)[sp].d(T)[sp].d([m5C])[sp].d([m5C])[sp].d(A)[sp].d(G)[sp].d(T)[sp].d(G)[sp].d([m5C])[sp].d([m5C])[sp].[moe]([m5C])p.[moe](A)p.[moe](T)[sp].[moe]([m5C])}$$$$ (last 3' nucleoside missing)” is 5.75 score 0-7; for “RNA1{[moe](A)[sp].[moe](T)p.[moe](G)p.[moe]([m5C])p.[moe]([m5C])[sp].d(A)[sp].d([m5C])[sp].d(A)[sp].d(T)[sp].d(A)[sp].d(T)[sp].d(A)[sp].d(G)[sp].d(G)[sp].d(G)[sp].[moe](T)p.[moe]([m5C])p.[moe]([m5C])[sp].[moe](T)}$$$$ (last 3' nucleoside missing)” it is 3 score 0-7; for “RNA1{[moe](A)[sp].[moe](T)p.[moe](T)p.[moe](T)p.[moe](A)[sp].d(G)[sp].d(G)[sp].d([m5C])[sp].d(T)[sp].d([m5C])[sp].d(T)[sp].d(T)[sp].d(T)[sp].d(T)[sp].d([m5C])[sp].[moe]([m5C])p.[moe](A)p.[moe](G)[sp].[moe](G)}$$$$ (last 3' nucleoside missing)” it is 4.75 score 0-7.
With “RNA1{[moe](A)[sp].[moe](T)p.[moe](T)p.[moe](T)p.[moe](A)[sp].d([m5C])[sp].d(T)[sp].d(T)[sp].d(T)[sp].d(T)[sp].d([m5C])[sp].d(A)[sp].d(G)[sp].d([m5C])[sp].d(T)[sp].[moe](G)p.[moe]([m5C])p.[moe]([m5C])[sp].[moe](T)}$$$$ (last 3' nucleoside missing)” the figure was 3 score 0-7; with “RNA1{[moe](A)[sp].[moe](T)p.[moe](T)p.[moe](T)p.[moe](A)[sp].d([m5C])[sp].d(T)[sp].d([m5C])[sp].d(T)[sp].d(T)[sp].d(G)[sp].d(T)[sp].d(T)[sp].d(G)[sp].d(A)[sp].[moe](A)p.[moe]([m5C])p.[moe](A)[sp].[moe](G)}$$$$ (last 3' nucleoside missing)”, 3.75 score 0-7.
Substance “RNA1{[moe](A)[sp].[moe](T)p.[moe](T)p.[moe](T)p.[moe](G)[sp].d(A)[sp].d(T)[sp].d(T)[sp].d(T)[sp].d([m5C])[sp].d(A)[sp].d(A)[sp].d(G)[sp].d(T)[sp].d([m5C])[sp].[moe]([m5C])p.[moe]([m5C])p.[moe](A)[sp].[moe](G)}$$$$ (last 3' nucleoside missing)” yielded a 3 h FOB score of 5.75 score 0-7.
